The source of these data is patent publication US8486933B2, “Pyrimidine inhibitors of kinase activity” (AbbVie Inc., priority 2009, dated 2013).

Each structure is given as a SMILES string.

The target in the test is T1, human IGF-1R (Homo sapiens, UniProt P08069).
T1 construct: human IGF-1R, amino acids 954-1367 expressed by baculovirus in Sf21 cells; GST (C); purchased Cell Signaling Technology; host or cells: baculovirus in Sf21 cells
Nature of the test: IGF-1R homogenous time-resolved fluorescence (HTRF) in vitro kinase assay. It counts as biochemical. Particulars: recombinant GST-tagged human IGF-1R aa 954-1367; ATP 50 μM; 60 minutes at room temperature. On the procedure: IGF-1R kinase activity was assayed by a homogenous time-resolved fluorescence (HTRF) in vitro kinase assay (Mathis, G., HTRF(R) Technology. J Biomol Screen, 1999. 4(6): p. 309-314). Specifically, 10 μL C-terminal GST-tagged, recombinant, human IGF-1R, amino acids 954-1367 expressed by baculovirus in Sf21 cells (Cell Singaling Technology) was mixed with 10 μL inhibitor (various concentrations, 2% final DMSO) and 10 μL of ATP (50 μM final concentration) in reaction buffer (50 mM HEPES, pH 7.5, 10 mM MgCl2, 2 mM MnCl2, 0.1% BSA and 1 mM DTT, 40 μL final volume). The reaction was initiated by addition of 10 μL of biotinylated peptide substrate (Biotin-Ahx-[…], 0.5 μM final concentration) in a black 384-well plate (Packard). […] The quenched reaction was allowed to stand at room temperature for 1 hour and then read in a time-resolved fluorescence detector (Envision, Perkin Elmer) at 615 nm and 665 nm simultaneously. The ratio between the signal of 615 nm and 665 nm was used in the calculation of the IC50.

T1 sequence (P08069 954-1367): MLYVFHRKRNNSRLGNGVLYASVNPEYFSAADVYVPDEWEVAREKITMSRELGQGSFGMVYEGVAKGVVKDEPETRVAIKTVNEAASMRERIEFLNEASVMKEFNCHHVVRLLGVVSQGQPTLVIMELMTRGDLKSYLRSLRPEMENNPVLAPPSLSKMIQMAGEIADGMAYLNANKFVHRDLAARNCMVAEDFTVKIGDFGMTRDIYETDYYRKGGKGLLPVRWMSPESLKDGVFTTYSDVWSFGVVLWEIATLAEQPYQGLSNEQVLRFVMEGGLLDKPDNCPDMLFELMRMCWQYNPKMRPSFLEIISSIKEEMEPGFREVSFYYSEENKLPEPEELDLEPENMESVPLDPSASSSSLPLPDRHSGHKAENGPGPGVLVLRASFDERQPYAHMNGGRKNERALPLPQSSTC

With `CCN1CCN(c2ccc(Nc3ncc(Br)c(Nc4ccc5[nH]c(C(F)(F)F)nc5c4)n3)cc2)CC1` [Example 1, 5-bromo-N^2-[4-(4-ethylpiperazin-1-yl)phenyl]-N^4-[2-(trifluoromethyl)-1H-benzimidazol-5-yl]pyrimidine-2,4-diamine], the IC50 was more than 500 nM.

With `CCN1CCN(c2ccc(Nc3ncc(Br)c(Nc4ccc5[nH]c(Cc6ccccc6)nc5c4)n3)cc2)CC1` [Example 2, N^4-(2-benzyl-1H-benzimidazol-5-yl)-5-bromo-N^2-[4-(4-ethylpiperazin-1-yl)phenyl]pyrimidine-2,4-diamine], the IC50 was more than 500 nM. Next, `CCN1CCN(c2ccc(Nc3ncc(Br)c(Nc4ccc5[nH]c(CCc6ccccc6)nc5c4)n3)cc2)CC1` [Example 3, 5-bromo-N^2-[4-(4-ethylpiperazin-1-yl)phenyl]-N^4-[2-(2-phenylethyl)-1H-benzimidazol-5-yl]pyrimidine-2,4-diamine]: more than 500 nM; `CCN1CCN(c2ccc(Nc3ncc(Br)c(Nc4ccc5c(c4)ncn5Cc4ccccc4)n3)cc2)CC1` [Example 4, N^4-(1-benzyl-1H-benzimidazol-5-yl)-5-bromo-N^2-[4-(4-ethylpiperazin-1-yl)phenyl]pyrimidine-2,4-diamine]: 101 to 500 nM. As for `CCN1CCN(c2ccc(Nc3ncc(Br)c(Nc4ccc5ncn(Cc6ccccc6)c5c4)n3)cc2)CC1` [Example 5, N^4-(1-benzyl-1H-benzimidazol-6-yl)-5-bromo-N^2-[4-(4-ethylpiperazin-1-yl)phenyl]pyrimidine-2,4-diamine], the IC50 is more than 500 nM. With `CCN1CCN(c2ccc(Nc3ncc(Br)c(Nc4cccc5[nH]c(C)nc45)n3)cc2)CC1` [Example 6, 5-bromo-N^2-[4-(4-ethylpiperazin-1-yl)phenyl]-N^4-(2-methyl-1H-benzimidazol-4-yl)pyrimidine-2,4-diamine], the IC50 is more than 500 nM. Next, `CCN1CCN(c2ccc(Nc3ncc(Br)c(Nc4ccc5[nH]ncc5c4)n3)cc2)CC1` [Example 7, 5-bromo-N^2-[4-(4-ethylpiperazin-1-yl)phenyl]-N^4-1H-indazol-5-ylpyrimidine-2,4-diamine]: 51 to 100 nM; `CCN1CCN(c2ccc(Nc3ncc(C)c(Nc4ccc5[nH]ncc5c4)n3)cc2)CC1` [Example 9, N^2-[4-(4-ethylpiperazin-1-yl)phenyl]-N^4-1H-indazol-5-yl-5-methylpyrimidine-2,4-diamine]: more than 500 nM. Next, `CCN1CCN(c2ccc(Nc3ncc(C(F)(F)F)c(Nc4ccc5[nH]ncc5c4)n3)cc2)CC1` [Example 11, N^2-[4-(4-ethylpiperazin-1-yl)phenyl]-N^4-1H-indazol-5-yl-5-(trifluoromethyl)pyrimidine-2,4-diamine]: 101 to 500 nM. Next, `COc1cc(N2CCC(N(C)C)CC2)ccc1Nc1ncc(Br)c(Nc2ccc3[nH]ncc3c2)n1` [Example 12, 5-bromo-N^2-{4-[4-(dimethylamino)piperidin-1-yl]-2-methoxyphenyl}-N^4-1H-indazol-5-ylpyrimidine-2,4-diamine]: 10 to 50 nM; `COc1cc(N2CCC(N3CCN(C)CC3)CC2)ccc1Nc1ncc(Br)c(Nc2ccc3[nH]ncc3c2)n1` [Example 13, 5-bromo-N^4-1H-indazol-5-yl-N^2-{2-methoxy-4-[4-(4-methylpiperazin-1-yl)piperidin-1-yl]phenyl}pyrimidine-2,4-diamine]: 10 to 50 nM; `CCN1CCN(c2ccc(Nc3ncc(Br)c(Nc4ccc5scnc5c4)n3)cc2)CC1` [Example 14, N^4-1,3-benzothiazol-5-yl-5-bromo-N^2-[4-(4-ethylpiperazin-1-yl)phenyl]pyrimidine-2,4-diamine]: 101 to 500 nM. As for `CCN1CCN(c2ccc(Nc3ncc(Br)c(Nc4cccc5oc(C)nc45)n3)cc2)CC1` [Example 15, 5-bromo-N^2-[4-(4-ethylpiperazin-1-yl)phenyl]-N^4-(2-methyl-1,3-benzoxazol-4-yl)pyrimidine-2,4-diamine], the IC50 fell in the range of 101 to 500 nM.

On to `COc1cc(N2CCC(N(C)C)CC2)ccc1Nc1ncc(Br)c(Nc2cccc3[nH]c(C)nc23)n1` [Example 16, 5-bromo-N^2-{4-[4-(dimethylamino)piperidin-1-yl]-2-methoxyphenyl}-N^4-(2-methyl-1H-benzimidazol-4-yl)pyrimidine-2,4-diamine], for which the IC50 lay within 101 to 500 nM. Regarding `COc1cc(N2CCC(N(C)C)CC2)ccc1Nc1ncc(Cl)c(Nc2cccc3[nH]c(C)nc23)n1` [Example 17, 5-chloro-N^2-{4-[4-(dimethylamino)piperidin-1-yl]-2-methoxyphenyl}-N^4-(2-methyl-1H-benzimidazol-4-yl)pyrimidine-2,4-diamine], the IC50 was more than 500 nM. Next, `COc1cc(N2CCC(N(C)C)CC2)ccc1Nc1ncc(Cl)c(Nc2ccc3c(cnn3C)c2)n1` [Example 18, 5-chloro-N^2-{4-[4-(dimethylamino)piperidin-1-yl]-2-methoxyphenyl}-N^4-(1-methyl-1H-indazol-5-yl)pyrimidine-2,4-diamine]: 101 to 500 nM; `COc1cc(N2CCC(N(C)C)CC2)ccc1Nc1ncc(Br)c(Nc2ccc3c(cnn3C)c2)n1` [Example 19, 5-bromo-N^2-{4-[4-(dimethylamino)piperidin-1-yl]-2-methoxyphenyl}-N^4-(1-methyl-1H-indazol-5-yl)pyrimidine-2,4-diamine]: 51 to 100 nM. In the case of `COc1cc(N2CCC(N(C)C)CC2)ccc1Nc1ncc(Br)c(Nc2cc3cn[nH]c3cc2Cl)n1` [Example 20, 5-bromo-N^4-(6-chloro-1H-indazol-5-yl)-N^2-{4-[4-(dimethylamino)piperidin-1-yl]-2-methoxyphenyl}pyrimidine-2,4-diamine] it was 10 to 50 nM. In the case of `COc1cc(N2CCC(N(C)C)CC2)ccc1Nc1ncc(Br)c(Nc2cc3cn[nH]c3cc2C)n1` [Example 21, 5-bromo-N^2-{4-[4-(dimethylamino)piperidin-1-yl]-2-methoxyphenyl}-N^4-(6-methyl-1H-indazol-5-yl)pyrimidine-2,4-diamine] it was 101 to 500 nM; in that of `COc1cc(N2CCC(N(C)C)CC2)ccc1Nc1ncc(Br)c(Nc2ccc3sc(C)nc3c2)n1` [Example 22, 5-bromo-N^2-{4-[4-(dimethylamino)piperidin-1-yl]-2-methoxyphenyl}-N^4-(2-methyl-1,3-benzothiazol-5-yl)pyrimidine-2,4-diamine], 51 to 100 nM. In the case of `COc1cc(N2CCC(N(C)C)CC2)ccc1Nc1ncc(Br)c(Nc2cc3cn[nH]c3cc2S(=O)(=O)C(C)C)n1` [Example 23, 5-bromo-N^2-{4-[4-(dimethylamino)piperidin-1-yl]-2-methoxyphenyl}-N^4-[6-(isopropylsulfonyl)-1H-indazol-5-yl]pyrimidine-2,4-diamine], the IC50 was less than 10 nM.

Consider `COc1cc(N2CCC(N(C)C)CC2)ccc1Nc1ncc(Br)c(Nc2cc3cn[nH]c3cc2SC(C)C)n1` [Example 24, 5-bromo-N^2-{4-[4-(dimethylamino)piperidin-1-yl]-2-methoxyphenyl}-N^4-[6-(isopropylthio)-1H-indazol-5-yl]pyrimidine-2,4-diamine], for which the IC50 fell in the range of 10 to 50 nM. In the case of `COc1cc(N2CCC(N(C)C)CC2)ccc1Nc1ncc(Cl)c(Nc2ccc3oc(C)nc3c2)n1` [Example 25, 5-chloro-N^2-{4-[4-(dimethylamino)piperidin-1-yl]-2-methoxyphenyl}-N^4-(2-methyl-1,3-benzoxazol-5-yl)pyrimidine-2,4-diamine] it was more than 500 nM; in that of `COc1cc(N2CCC(N(C)C)CC2)ccc1Nc1ncc(Cl)c(Nc2cc3cn[nH]c3cc2S(=O)(=O)C(C)C)n1` [Example 26, 5-chloro-N^2-{4-[4-(dimethylamino)piperidin-1-yl]-2-methoxyphenyl}-N^4-[6-(isopropylsulfonyl)-1H-indazol-5-yl]pyrimidine-2,4-diamine], 10 to 50 nM.

Consider `COc1cc(N2CCC(N(C)C)CC2)ccc1Nc1ncc(Br)c(Nc2cc3cnn(C)c3cc2S(=O)(=O)C(C)C)n1` [Example 27, 5-bromo-N^2-{4-[4-(dimethylamino)piperidin-1-yl]-2-methoxyphenyl}-N^4-[6-(isopropylsulfonyl)-1-methyl-1H-indazol-5-yl]pyrimidine-2,4-diamine], for which the IC50 was less than 10 nM. Next, `COc1cc(N2CCC(N3CCN(C)CC3)CC2)ccc1Nc1ncc(Br)c(Nc2cc3cnn(C)c3cc2S(=O)(=O)C(C)C)n1` [Example 28, 5-bromo-N^4-[6-(isopropylsulfonyl)-1-methyl-1H-indazol-5-yl]-N^2-{2-methoxy-4-[4-(4-methylpiperazin-1-yl)piperidin-1-yl]phenyl}pyrimidine-2,4-diamine]: less than 10 nM; `COc1cc(N2CCC(N(C)C)CC2)ccc1Nc1ncc(Br)c(Nc2cc3cn(C)nc3cc2S(=O)(=O)C(C)C)n1` [Example 29, 5-bromo-N^2-{4-[4-(dimethylamino)piperidin-1-yl]-2-methoxyphenyl}-N^4-[6-(isopropylsulfonyl)-2-methyl-2H-indazol-5-yl]pyrimidine-2,4-diamine]: 101 to 500 nM. Next, `CCS(=O)(=O)c1cc2[nH]ncc2cc1Nc1nc(Nc2ccc(N3CCC(N(C)C)CC3)cc2OC)ncc1Br` [Example 30, 5-bromo-N^2-{4-[4-(dimethylamino)piperidin-1-yl]-2-methoxyphenyl}-N^4-[6-(ethylsulfonyl)-1H-indazol-5-yl]pyrimidine-2,4-diamine]: less than 10 nM.

A word on the IC50: it is the concentration at which inhibition is half-maximal.
